How the values were obtained:
[1] = tested on: Erk1/2 phosphorylation; test: Erk1/2 Phosphorylation Assay (western blot), Panc-1; type: cell-based, human; conditions: at 10 μM, * = activation
Method in brief: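 Phospho-Erk1/2 (Thr202/Tyr204) was detected by western blot in lysates of Panc-1 cells (KRas G12D). These had 6 h, 37° C exposure to 10 μM compound or a dilution series for IC50, in 0.3% DMSO. Cells were either starved overnight in 0.5% FBS with a 15-min 1.5 ng/ml EGF pulse, or kept unstimulated in 10% FBS.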

[2] = tested on: IL6; test: IL-6 Quantification Assay (ELISA), LPS-stimulated RAW 264.7; type: cell-based; parameters: inhibition: dose or concentration left out as unconfirmed; conditions: Mus musculus, RAW264.7; read-out: IL-6: % inh.
[3] = tested on: TNF-alpha; test: TNF-alpha Quantification Assay (ELISA), LPS-stimulated RAW 264.7; type: cell-based; conditions: Mus musculus, RAW264.7; at 10 μM; read-out: TNFα: % inh.
[4] = tested on: KRas G12D mutant; test: Ras GTP Binding Domain Inhibition Assay (Ras Superfamily Assay); conditions: 20 μM compound; for KRas G12D mutant + SOS: % inh.: with SOS; for KRas G12D mutant: % inh.: without SOS
Method in brief: (§1)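 His-tagged GTPases immobilised on nickel-coated plates, pre-incubated with compound (20 μM single point, or serial dilution for IC50) 3 h at room temperature, with or without 10-30 μg/mL Sos (residues 556-1049) in the final hour. Bound Cy3- or Cy5-GTP (100 nM, 45 min) measured by fluorescence after washing.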

[5] = tested on: KRas wild type; test: as above; conditions: 20 μM compound; for KRas wild type + SOS: % inh.: with SOS; for KRas wild type: % inh.: without SOS
Method in brief: as §1

[6] = target: T1, Rac-1 (Homo sapiens, UniProt P63000); test: as above; conditions: read-out: Rac-1: % inh.
T1 construct: made in house
Method in brief: as §1

SMILES	% inh of Erk1/2 phosphorylation in Panc-1 [1]	inhibition [2]	inhibition at 10 µM [3]	KRas G12D mutant + SOS: % inh. [4]	KRas G12D mutant: % inh. [4]	KRas wild type + SOS: % inh. [5]	KRas wild type: % inh. [5]	inhibition at 20 µM [6]
COC1CCCN(c2nc(-c3nccn3C)nn3cc(-c4ccn(C(C)C)n4)c(-c4ccccc4)c23)C1 (racemic) [Compound 21, rac 6-(1-Isopropyl-1H-pyrazol-3-yl)-4-(3-methoxypiperidin-1-yl)-2-(1-methyl-1H-imidazol-2-yl)-5-phenylpyrrolo[2,1-f][1,2,4]triazine]	0 (0% inhibition)	1 to 24%	0%	0 (0 = 0% inhibition)	B (B = 26-49% inhibition)	A (A = 1-25% inhibition)	A (A = 1-25% inhibition)	0%
CO[C@H]1CC[C@@H](Nc2nc(-c3nccn3C)nn3cc(-c4ccn(C(C)C)n4)c(C)c23)C1 (racemic) [Compound 1, rac 6-(1-Isopropyl-1H-pyrazol-3-yl)-N-((1R,3S)-3-methoxycyclopentyl)-5-methyl-2-(1-methyl-1H-imidazol-2-yl)pyrrolo[2,1-f][1,2,4]triazin-4-amine]	0 (0% inhibition)	75 to 100%	1 to 24%	0 (0 = 0% inhibition)	A (A = 1-25% inhibition)	A (A = 1-25% inhibition)	0 (0 = 0% inhibition)	1 to 25%
COCc1noc(Nc2nc(-c3nccn3C)nn3cc(-c4ccn(C(C)C)n4)c(C)c23)n1 [Compound 82, N-(6-(1-Isopropyl-1H-pyrazol-3-yl)-5-methyl-2-(1-methyl-1H-imidazol-2-yl)pyrrolo[2,1-f][1,2,4]triazin-4-yl)-3-(methoxymethyl)-1,2,4-oxadiazol-5-amine]	A* (1-25% activation)	75 to 100%	25 to 49%	B (B = 26-49% inhibition)	C (C = 50-75% inhibition)	0 (0 = 0% inhibition)	C (C = 50-75% inhibition)	26 to 49%
CC(C)n1ccc(-c2cn3nc(-c4nccn4C)nc(O)c3c2-c2ccccc2)n1 [Compound 17, 6-(1-Isopropyl-1H-pyrazol-3-yl)-2-(1-methyl-1H-imidazol-2-yl)-5-phenylpyrrolo[2,1-f][1,2,4]triazin-4-ol]	A (1-25% inhibition)	50 to 74%	25 to 49%	C (C = 50-75% inhibition)	C (C = 50-75% inhibition)	C (C = 50-75% inhibition)	C (C = 50-75% inhibition)	50 to 75%
COc1cc(Nc2nc(-c3nccn3C)nn3cc(-c4ccn(C(C)C)n4)c(-c4ccccc4)c23)ncn1 [Compound 22, 6-(1-Isopropyl-1H-pyrazol-3-yl)-N-(6-methoxypyrimidin-4-yl)-2-(1-methyl-1H-imidazol-2-yl)-5-phenylpyrrolo[2,1-f][1,2,4]triazin-4-amine]	0 (0% inhibition)	75 to 100%	0%	B (B = 26-49% inhibition)	B (B = 26-49% inhibition)	A (A = 1-25% inhibition)	B (B = 26-49% inhibition)	26 to 49%
COc1cc(Nc2nc(-c3nccn3C)nn3cc(-c4ccn(C(C)C)n4)c(C)c23)ccn1 [Compound 87, 6-(1-Isopropyl-1H-pyrazol-3-yl)-N-(2-methoxypyridin-4-yl)-5-methyl-2-(1-methyl-1H-imidazol-2-yl)pyrrolo[2,1-f][1,2,4]triazin-4-amine]	C* (46-84% activation)	0%	0%	A (A = 1-25% inhibition)	A (A = 1-25% inhibition)	0 (0 = 0% inhibition)	0 (0 = 0% inhibition)	0%
COCC1CCN(c2nc(-c3nccn3C)nn3cc(-c4ccn(C(C)C)n4)c(-c4ccccc4)c23)C1.Cl (racemic) [Compound 19, rac 6-(1-Isopropyl-1H-pyrazol-3-yl)-4-(3-(methoxymethyl)pyrrolidin-1-yl)-2-(1-methyl-1H-imidazol-2-yl)-5-phenylpyrrolo[2,1-f][1,2,4]triazine hydrochloride salt]	0 (0% inhibition)	75 to 100%	25 to 49%	A (A = 1-25% inhibition)	B (B = 26-49% inhibition)	A (A = 1-25% inhibition)	A (A = 1-25% inhibition)	0%
COc1cnc(Nc2nc(-c3nccn3C)nn3cc(-c4ccn(C(C)C)n4)c(C)c23)cn1 [Compound 83, 6-(1-Isopropyl-1H-pyrazol-3-yl)-N-(5-methoxypyrazin-2-yl)-5-methyl-2-(1-methyl-1H-imidazol-2-yl)pyrrolo[2,1-f][1,2,4]triazin-4-amine]	D* (85-100% activation)	25 to 49%	1 to 24%	D (D = 76-100% inhibition)	D (D = 76-100% inhibition)	C (C = 50-75% inhibition)	D (D = 76-100% inhibition)	76 to 100%
Cc1c(-c2ccn(C(C)C)n2)cn2nc(-c3nccn3C)nc(Nc3ncc(C4CC4)o3)c12 [Compound 90, 5-Cyclopropyl-N-(6-(1-isopropyl-1H-pyrazol-3-yl)-5-methyl-2-(1-methyl-1H-imidazol-2-yl)pyrrolo[2,1-f][1,2,4]triazin-4-yl)oxazol-2-amine]	D* (85-100% activation)	0%	1 to 24%	A (A = 1-25% inhibition)	0 (0 = 0% inhibition)	0 (0 = 0% inhibition)	B (B = 26-49% inhibition)	76 to 100%
Cc1c(-c2ccn(C(C)C)n2)cn2nc(-c3nccn3C)nc(Nc3nnc(C4CC4)[nH]3)c12 [Compound 81, N-(5-Cyclopropyl-4H-1,2,4-triazol-3-yl)-6-(1-isopropyl-1H-pyrazol-3-yl)-5-methyl-2-(1-methyl-1H-imidazol-2-yl)pyrrolo[2,1-f][1,2,4]triazin-4-amine]	0 (0% inhibition)	75 to 100%	50 to 74%	C (C = 50-75% inhibition)	D (D = 76-100% inhibition)	B (B = 26-49% inhibition)	C (C = 50-75% inhibition)	76 to 100%
Cn1ccnc1-c1nc(O)c2c(-c3ccccc3)ccn2n1 [Compound 39, 2-(1-Methyl-1H-imidazol-2-yl)-5-phenylpyrrolo[2,1-f][1,2,4]triazin-4-ol]	0 (0% inhibition)	0%	0%	A (A = 1-25% inhibition)	A (A = 1-25% inhibition)	A (A = 1-25% inhibition)	A (A = 1-25% inhibition)	0%

Reference: patent US12459951B2, “Compounds that interact with RAS superfamily proteins for treatment of cancers, inflammatory diseases, rasopathies, and fibrotic disease” (SHY Therapeutics, LLC, priority 2022, dated 2025)
